# Experimental data: patent US7723323B2, “Pharmaceutical use of fused 1,2,4-triazoles” (High Point Pharmaceuticals, LLC, priority 2003, dated 2010)
# pIC50: −log10 of the molar value.
# Target: T1, h-11βHSD1 (Homo sapiens, UniProt P28845)
# T1 construct: made in house; host or cells: yeast (extract of transformed yeast)
# Experiment: 11βHSD1 enzyme assay (SPA)
# Format: biochemical
# Details: extract of yeast transformed with h-11βHSD1; 120 nM 3H-cortisone, 4 mM β-NADPH, 60 min at 30° C.
# Method: ^3H-cortisone and anti-rabbit Ig coated scintillation proximity assay (SPA) beads were purchased from Amersham Pharmacia Biotech, β-NADPH was from Sigma and rabbit anti-cortisol antibodies were from Fitzgerald. An extract of yeast transformed with h-11βHSD1 (Hult et al., FEBS Lett. 441, 25 (1998)) was used as the source of enzyme. The test compounds were dissolved in DMSO (10 mM). All dilutions were performed in a buffer containing 50 mM TRIS-HCl (Sigma Chemical Co), 4 mM EDTA (Sigma Chemical Co), 0.1% BSA (Sigma Chemical Co), 0.01% Tween-20 (Sigma Chemical Co) and 0.005% bacitracin (Novo Nordisk A/S), pH=7.4. Optiplate 96 wells plates were supplied by Packard. The amount of ^3H-cortisol bound to the SPA beads was measured on TopCount NXT, Packard.
# h-11βHSD1, 120 nM ^3H-cortisone, 4 mM β-NADPH, antibody (1:200), serial dilutions of test compound and SPA particles (2 mg/well) were added to the wells. The reaction was initiated by mixing the different components and was allowed to proceed under shaking for 60 min at 30° C. […] Data was analysed using GraphPad Prism software.
# T1 sequence (P28845 whole entry): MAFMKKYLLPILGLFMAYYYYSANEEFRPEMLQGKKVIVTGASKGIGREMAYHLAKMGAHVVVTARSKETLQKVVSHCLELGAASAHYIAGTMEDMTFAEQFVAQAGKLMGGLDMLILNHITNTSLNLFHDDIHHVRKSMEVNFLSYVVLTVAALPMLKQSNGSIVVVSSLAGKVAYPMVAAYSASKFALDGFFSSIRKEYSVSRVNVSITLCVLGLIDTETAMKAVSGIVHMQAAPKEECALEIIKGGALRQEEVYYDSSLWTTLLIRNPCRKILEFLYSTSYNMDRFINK
row,Compound,pIC50
1,"Brc1ccccc1-c1nnc2n1CCCCC2 [Example 1, 3-(2-Bromo-phenyl)-6,7,8,9-tetrahydro-5H-[1,2,4]triazolo[4,3-a]azepine]",6.64
2,c1ccc(OCc2ccccc2-c2nnc3n2CCCCC3)cc1 [Example 1-a],6.96
